Experimental data: PMC7000730, “CAPA neuropeptides and their receptor form an anti-diuretic hormone signaling system in the human disease vector, Aedes aegypti” (Scientific Reports, 2020)
pEC50: −log10 of the molar value. Entries after “also recorded” stand apart in the source; their conditions may differ. Where a name gives a salt, the structure may show the parent alone. Read-outs that look alike come from different tables or passages of the source. Non-standard residues stand in square brackets, D forms with d. Residues, ends and D or L forms follow the SMILES beside them. No end group written: not given here. pGlu = O=C1CC[C@@H](C(=O)O)N1

Tests used:
[1] = molecular target: T1, A. aegypti CAPA receptor (CAPAr, anti-diuretic hormone receptor) (Aedes aegypti, UniProt A0A7D5D2Z2); test: Heterologous receptor functional activation bioluminescence assay (CHO-K1 aequorin); type: cell-based; settings: for CAPAr activation (in words): calcium-based luminescence
T1 sequence (A0A7D5D2Z2 1-712): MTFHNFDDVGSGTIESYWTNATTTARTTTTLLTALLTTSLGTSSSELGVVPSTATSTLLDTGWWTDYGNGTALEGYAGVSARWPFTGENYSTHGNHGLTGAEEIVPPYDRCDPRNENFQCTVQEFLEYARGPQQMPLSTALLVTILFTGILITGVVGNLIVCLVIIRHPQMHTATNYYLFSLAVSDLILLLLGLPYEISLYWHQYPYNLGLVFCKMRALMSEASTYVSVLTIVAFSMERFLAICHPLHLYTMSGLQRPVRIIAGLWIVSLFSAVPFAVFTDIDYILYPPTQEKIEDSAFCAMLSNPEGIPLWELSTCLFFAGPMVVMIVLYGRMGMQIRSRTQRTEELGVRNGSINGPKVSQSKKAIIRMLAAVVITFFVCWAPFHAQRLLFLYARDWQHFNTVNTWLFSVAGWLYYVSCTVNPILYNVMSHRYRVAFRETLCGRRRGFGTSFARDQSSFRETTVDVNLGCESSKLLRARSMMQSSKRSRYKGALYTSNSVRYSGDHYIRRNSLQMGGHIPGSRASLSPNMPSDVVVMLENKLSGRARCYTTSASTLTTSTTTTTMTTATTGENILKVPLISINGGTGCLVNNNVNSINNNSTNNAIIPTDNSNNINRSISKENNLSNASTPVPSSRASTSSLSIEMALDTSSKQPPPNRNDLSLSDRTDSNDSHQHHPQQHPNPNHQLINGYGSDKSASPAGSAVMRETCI
Experimental: (B) Raw luminescent response following application of each CAPA gene-derived neuropeptide and representative neuropeptides belonging to several insect families, each tested at 10 μM. For peptide sequence information and species origin, see Table S3. […] Data represent the mean ± standard error (n = 3).
The open reading frame of the cloned A. aegypti CAPAr was inserted into pcDNA3.1+ mammalian expression vector following procedures described previously[60],[92],[93]. Using a recombinant CHO-K1 cell line stably expressing aequorin[59], A. aegypti CAPAr was transiently expressed following growth and transfection conditions as reported recently. Cells were harvested for the functional assay at 48 hours post-transfection by detaching cells from the culture flask using 5 mM EDTA in Dulbecco’s PBS (DPBS; Wisent Corp., St. Bruno, QC) and later cells were resuspended at a concentration of 10^6–10^7 cells/mL in assay media and incubated with coelenterazine h as described previously. Prior to running the functional assay, cells were diluted 10-fold in assay media and left to incubate for one additional hour. Several endogenous as well as other insect neuropeptides representing a variety of neuropeptide families (see Table S2) were tested by preparing serial dilutions of each peptide in assay media. All peptides were commercially synthesized at a purity of >90% (Genscript, Piscataway, NJ) and 1 mM stock solutions were prepared by dissolving 1 mg of each peptide in water or DMSO as appropriate based on specific peptide characteristics. Recombinant CHO-K1 cells expressing the A. aegypti CAPAr were loaded into each well of multi-well plate using an automated injector module linked to a Synergy 2 Multi Mode Microplate Reader (BioTek, Winooski, VT) which measured kinetic luminescent response from each well for 20 sec immediately following cell loading onto the different peptides at various doses. Data was compiled in Microsoft Excel and analyzed in GraphPad Prism 8.0 (GraphPad Software, San Diego, CA).
Table S2. List and primary structure of several insect neuropeptides tested for functional activation of the mosquito anti-diuretic hormone (CAPA) receptor using heterologous bioassay.

[2] = tested on: isolated MTs of adult female A. aegypti (diuretic hormone-stimulated fluid secretion); test: Malpighian tubule fluid secretion assay (modified Ramsay assay); set-up: species or system Aedes aegypti; settings: for effect of inhibitor on inhibition by AedaeCAPA-1 and cGMP, 5HT-stimulated MTs: 5HT 100 nmol l^-1, AedaeCAPA-1 1 fmol l^-1 or cGMP (8 bromo-cGMP) 100 nmol l^-1, L-NAME 2 µmol l^-1 or KT5823 5 µmol l^-1, 60 min
Experimental: To further understand the anti-diuretic signaling pathway involving the CAPA neuroendocrine system, pharmacological blockers, including inhibitors of NOS (L-NAME) and PKG (KT5823), were tested against diuretic hormone-stimulated MTs alone and together with either AedaeCAPA-1 or cGMP.
Figure 5 Effect of a nitric oxide synthase (NOS) inhibitor (L-NAME) on the anti-diuretic activity of AedaeCAPA-1 and cGMP in DromeDH31-stimulated A. aegypti MTs. The NOS inhibitor, L-NAME, was applied against (A) DromeDH31- and (B) 5HT-stimulated MTs alone or in the presence of either AedaeCAPA-1 or cGMP. Secretion rates are presented as mean ± SEM, n = 17–22.
Figure 6 Effect of a protein kinase G (PKG) inhibitor (KT5823) on the anti-diuretic activity of AedaeCAPA-1 and cGMP in DromeDH31-stimulated A. aegypti MTs. The PKG inhibitor, KT5823, was applied against (A) DromeDH31- and (B) 5HT-stimulated MTs alone or in the presence of either AedaeCAPA-1 or cGMP. Secretion rates are presented as mean ± SEM, n = 16–25.
In order to determine fluid secretion rates, a modified Ramsay secretion assay[85] was performed on isolated MTs of 3–6 day old adult female A. aegypti, as reported recently. Tissue dissections were performed under physiological saline prepared as described previously[86] diluted 1:1 with Schneider’s Insect Medium (Sigma-Aldrich, Oakville, ON). Individual MTs were removed and transferred to a Sylgard-lined Petri dish containing 20 μl saline bathing droplets immersed in hydrated mineral oil to prevent evaporation. The proximal end of the MT was removed from the bathing saline and wrapped around a Minuten pin to allow for secretion measurements. Dosages of 25 nmol l^−1 DromeDH31[22] or 100 nmol l^−1 5HT[97],[98] alone or in combination with 1 fmol l^−1 AedaeCAPA-1[37] were applied to the isolated MTs as previously described. […] To investigate the effects of the pharmacological blockers, a nitric oxide synthase (NOS) inhibitor, Nω-Nitro-L-arginine methyl ester hydrochloride (L-NAME), and protein kinase G (PKG) inhibitor, KT5823, were used against 5-HT- and DH31-stimulated MTs. Dosages of 2 µmol l^−1 L-NAME (manufacturer’s recommended dose) and 5 µmol l^−1 KT5823[36] were applied to the MTs. The inhibitors were treated in conjunction with 1 fmol l^−1 AedaeCAPA-1 and/or 100 nmol l^−1 cyclic guanosine monophosphate, 8 bromo-cGMP (cGMP)[37] (Sigma-Aldrich, Oakville, ON, Canada). Unstimulated controls consisted of tubules bathed in physiological saline with no diuretic application. Following a 60-minute incubation period, the size of the secreted droplet was measured using an eyepiece micrometer and fluid secretion rate (FSR) was calculated as described previously. […]

[3] = tested on: isolated MTs of adult female A. aegypti (diuretic hormone-stimulated fluid secretion); settings: ref [37]; cited from earlier work
Description: The influx of Ca^2+ through these channels activates NOS, causing the production of NO, which subsequently activates guanylate cyclase to increase levels of cGMP in the MTs[44]. Ultimately, the activation of the NO/cGMP pathway stimulates the apical V-type H^+-A ...

[4] = CHO-K1 cells stably expressing aequorin, A. aegypti CAPAr transiently expressed (48 h post-transfection), coelenterazine h, kinetic luminescence for 20 sec, dose-response, n = 3, read-out: EC50 on CAPAr
[5] = n = 17–22 (L-NAME), 16–25 (KT5823)
[6] = CHO-K1-aequorin cells expressing CAPAr, luminescence, tested up to 10 μM, read-out: EC50 on CAPAr (NA = no detectable activity)

Compound: CC(C)C[C@H](NC(=O)CNC(=O)[C@@H]1CCC(=O)N1)C(=O)N[C@H](C(=O)N1CCC[C@H]1C(=O)N[C@@H](Cc1ccccc1)C(=O)N1CCC[C@H]1C(=O)N[C@@H](CCCNC(=N)N)C(=O)N[C@H](C(N)=O)C(C)C)C(C)C [CAPA2] ([pGlu]GLVPFPRV-NH2)
- CAPAr activation (in words) ([1]; CHO-K1-aequorin cells expressing CAPAr): potently activate this receptor
- pEC50 [1, 4]: 8.25
- raw luminescent response at 10 μM (in words) ([1]; each peptide at 10 μM, vs BSA vehicle control, one-way ANOVA, Tukey, p < 0.01, n = 3): no difference in response was observed between the two endogenous CAPA neuropeptides

Compound: COC(=O)[C@@]1(OC)C[C@H]2O[C@]1(C)n1c3ccccc3c3c4c(c5c6ccccc6n2c5c31)C(=O)N(C)C4 [KT5823]
- effect of inhibitor on inhibition by AedaeCAPA-1 and cGMP, 5HT-stimulated MTs [2, 5]: the inhibitory activity of AedaeCAPA-1 and cGMP on 5HT-stimulated tubules was abolished
- effect of inhibitor on inhibition of both DH31- and 5HT-stimulated diuresis ([2]; AedaeCAPA-1 1 fmol l^-1 or cGMP 100 nmol l^-1, KT5823 5 µmol l^-1, 60 min): the inhibition of both DH31- and 5HT stimulated diuresis by AedaeCAPA-1 and cGMP were sensitive to the PKG inhibitor, KT5823
- effect of inhibitor on inhibition by both AedaeCAPA-1 and cGMP, DH31-stimulated MTs ([2]; DromeDH31 25 nmol l^-1, AedaeCAPA-1 1 fmol l^-1 or cGMP (8 bromo-cGMP) 100 nmol l^-1, KT5823 5 µmol l^-1, 60 min, n = 16–25): abolished the inhibitory effect of both cGMP and AedaeCAPA-1; also recorded: abolished the anti-diuretic activity of both AedaeCAPA-1 and cGMP, resulting in normal DH31-induced diuresis

Compound: COC(=O)[C@@H](N)CCCNC(N)=N[N+](=O)[O-] [L-NAME, Nω-Nitro-L-arginine methyl ester hydrochloride]
- effect of inhibitor on inhibition by AedaeCAPA-1 and cGMP, 5HT-stimulated MTs [2, 5]: neither AedaeCAPA-1 nor cGMP inhibition are influenced by L-NAME; also recorded: L-NAME had no influence on the anti-diuretic activity of AedaeCAPA-1 in 5HT-stimulated MTs
- effect of inhibitor on inhibition by AedaeCAPA-1, DH31-stimulated MTs ([2]; DromeDH31 25 nmol l^-1, AedaeCAPA-1 1 fmol l^-1, L-NAME 2 µmol l^-1 or KT5823 5 µmol l^-1, 60 min, n = 17–22 (L-NAME), 16–25 (KT5823)): the inhibitory effect of AedaeCAPA-1 was abolished; also recorded: AedaeCAPA-1 mediated inhibition of DH31-stimulated MTs was mitigated in the presence of L-NAME, reducing the anti-diuretic effects observed with AedaeCAPA-1
- effect of inhibitor on inhibition by cGMP, DH31-stimulated MTs ([2]; DromeDH31 25 nmol l^-1, cGMP (8 bromo-cGMP) 100 nmol l^-1, L-NAME 2 µmol l^-1 or KT5823 5 µmol l^-1, 60 min, n = 17–22 (L-NAME), 16–25 (KT5823)): no influence on the inhibitory effect of cGMP; also recorded: did not alter the inhibitory effects of exogenous cGMP

Compound: Nc1nc2c(nc(Br)n2[C@@H]2O[C@@H]3COP(=O)(O)O[C@H]3[C@H]2O)c(=O)[nH]1 [cGMP, cyclic guanosine monophosphate, 8 bromo-cGMP]
- inhibition of fluid secretion rate (earlier work) [3]: considerably inhibits fluid secretion rate

Compound: AGNSGANSGMWFGPRL-NH2 [PK1]
- luminescent response as activity compared to either CAPA peptide ([1]; 10 μM (saturating dose), n = 3): ~ 20%
- potency compared to the canonical CAPA ligands ([1]; CAPAr in CHO-K1-aequorin cells): over five orders of magnitude lower compared to the canonical CAPA ligands
- CAPAr activation (in words) ([1]; CHO-K1-aequorin cells expressing CAPAr, listed as Aedae-PK1): low agonist activity
- CAPAr activation (in words) ([1]; CHO-K1-aequorin cells expressing CAPAr, listed as pyrokinin 1-related peptide): very poor activity compared to the two CAPA peptides
- CAPAr activation (in words) ([1]; CHO-K1-aequorin cells expressing CAPAr, listed as pyrokinin-1): a significantly higher concentration of pyrokinin-1 was needed to achieve even low level CAPAr activation
- pEC50 ([1]; CHO-K1 cells stably expressing aequorin, A. aegypti CAPAr transiently expressed (48 h post-transfection), coelenterazine h, kinetic luminescence for 20 sec, tested up to 10 μM, read-out: EC50 on CAPAr): < 5.00

Compound: AWNSLHGGW-NH2 [MIP-7]
- pEC50 [1, 6]: < 5.00

Compound: GPTVGLFAFPRV-NH2 [CAPA1]
- pEC50 [1, 4]: 8.17

Compound: GYRKPPFNGSIF-NH2 [SIFa]
- pEC50 [1, 6]: < 5.00

Compound: KAVRSPSLRLRF-NH2 [sNPF]
- pEC50 [1, 6]: < 5.00

Compound: NSVVLGKKQRFHSWG-NH2 [kinin]
- pEC50 [1, 6]: < 5.00

Compound: NTVNFSPRL-NH2 [PK2-1]
- pEC50 [1, 6]: < 5.00

Compound: SALDKNFMRF-NH2 [FMRFa-1]
- pEC50 [1, 6]: < 5.00

Compound: SPPFAPRL-NH2 [PK2-2]
- pEC50 [1, 6]: < 5.00
